Experimental findings from patent US4281009A, “Hydantoin derivatives” (Nippon Zoki Pharmaceutical Co., Ltd., priority 1978, dated 1981) are described below.

Where only a bound is given, the exact number is not on record here.

The subject of data set [1] is isolated duodenum. In words: Recovery of acetylcholine sensitivity of isolated duodenum of SART stress mice (Magnus method). Type of data set: in vivo, mice (dd-strain male). The conditions noted are these: 6th day, Ach 10^-7 g/ml, Average ± S.E. From the text: (§1) SART stress animals used in the tests described below were raised according to a method of Kita, et al. [Folia Pharmacol. Japan.: 71, 195-210 (1975)].
3. Effect of recovering acetylcholine (Ach) sensitivity of isolated intestinal tract:
Groups each comprising at least 10 dd-strain male mice were used. The compounds of the present invention or other comparative drugs were given intraperitoneally once a day during the stress-causing operation. On the 6th day, Ach (10^-7 g/ml.) sensitivity of isolated duodenum was examined using the Magnus method.

Data set [2] concerns SART stress mice. Put plainly: Inhibitory effects on increase of heart rate and elongation of QRS-time in SART stress mice. Type of data set: in vivo, mice (dd-strain male). The conditions noted are these: 100 mg/kg/day, 9th day, Average ± S.D. The protocol: as §1
2. Inhibitory effects on increase of heart rate and elongation of QRS-time in stress animals:
Groups of mice each comprising 11 or 12 dd-strain male mice were divided into three groups in the same manner as above and heart rate and QRS-time were determined on the 9th day after initiation of the tests.

For data set [3], the system named is normal mice and SART stress mice. Put plainly: Analgesic effect, acetic acid writhing method. Type of data set: in vivo. The conditions noted are these: Mus musculus, sc, 100 mg/Kg subcutaneously. How it is done: 5.2. Acetic acid writhing method: 0.1 ml./10 g of isotonic sodium chloride solution containing 0.7% acetic acid was given intraperitoneally to groups of mice each comprising 5 normal mice and 5 SART stress mice to which SART stress had been applied for 8 days. Writhing syndromes number appeared for 15 minutes after the administration was measured. The effect was evaluated by giving 100 mg/Kg of the compounds of the present invention or DPH subcutaneously and comparing the writhing syndromes number of the mice with that of control mice.

Data set [4] shares this test system. In words: Analgesic effect, tail pressure method (Randall-Selitto's device). Type of data set: in vivo, mice (ddY-strain male). The conditions noted are these: 60 minutes; for change in vivo at 100 mg/kg / change in vivo at 200 mg/kg: Mus musculus, ip, 1 h; for change in vivo at 100 mg/kg: intraperitoneal 100 mg/kg; for Analgesic effect: intraperitoneal 50 mg/kg; for change in vivo at 200 mg/kg: intraperitoneal 200 mg/kg. How it is done:
5.1 Tail pressure method:
Randall-Selitto's device for determining analgesic effect by pressure stimulation was used. […]. The compounds of the present invention or other comparative drugs were given thereto and analgesic effect was determined. The effect was judged by measuring pressure applied 60 minutes after the intraperitoneal administration of the compounds of the present invention. The pressure thus measured was divided by a pressure before the administration. The value thus obtained was compared with that of a control group (to which 10 ml./Kg of 0.5% sodium salt of carboxymethylcellulose or 0.5% Tween 80 was given). When the compounds of the present invention were given perorally and other comparative drugs were given, an average of the pressure at 30, 60, 90 and 120 minutes after the administration was employed for evaluating the effect.

Data set [5] can be described thus: Acute toxicity test (LD50, Litchfield-Wilcoxon), rats. The conditions noted are these: rat, in vivo, ip, intraperitoneal. How it is done: (§2) Toxicity tests were carried out by intraperitoneal administration of the compound of the present invention to groups each comprising 10 ICR-strain mice and SD-strain rats. LD50 was calculated by the Litchfield-Wilcoxon method based on the number of death 72 hours after the administration.

Data set [6] is described as follows: Acute toxicity test (LD50, Litchfield-Wilcoxon), mice. The conditions noted are these: mouse, in vivo, ip, intraperitoneal. The protocol:
as §2

The test system of data set [7] is ddY-strain male mice. In words: Effect of prolongation of sleeping time (hexobarbital). Type of data set: in vivo. The settings on record: Mus musculus, ip; for change in vivo at 100 mg/kg: 100 mg/kg intraperitoneal; for change in vivo at 300 mg/kg: 300 mg/kg intraperitoneal. The protocol: 7. Effect of prolongation of sleeping time:
Groups of mice each comprising 10 ddY-strain male mice were used. Sodium salt of hexobarbital was given intraperitoneally. Thereafter, the period of time in which righting reflex disappeared was measured. The effect was evaluated on the basis of prolongation of time of disappearance of righting reflex by the intraperitoneal administration of the compounds of the present invention as compared with control mice.

The subject of data set [8] is normal mice and SART stress mice. Put plainly: Analgesic effect, D'Amour-Smith method. Type of data set: in vivo, mice (ddY-strain male). The conditions noted are these: Mus musculus, ip, intraperitoneal 100 mg/kg. How it is done: 5.3. D'Amour-Smith method:
Groups each comprising 10 ddY-strain male normal mice and SART stress mice to which SART stress had been applied for 4 days were used. The root of the tail of the mouse to which black ink was applied was irradiated with infrared rays for up to 15 seconds. Time required till escape response was observed was measured. The effect was shown by the ratio of the mice in which an average value of the response time at 30, 60, 90 and 120 minutes after the administration of the compounds of the present invention or other comparative drugs was prolonged to at least 2 times as long as the time before the administration.

Data set [9] has as its system dd-strain male mice. In words: Antiulcerogenic effect on Takagi's restraint-plus-water-immersing ulcer. The settings on record: Mus musculus, ip; 150 mg/kg intraperitoneal. Type of data set: in vivo. How it is done: 6.1 Antiulcerogenic effect on Takagi's restraint-plus-water-immersing ulcer: Groups each comprising 8-26 dd-strain male mice were used. The tests were carried out according to a method of Takagi, et al. [Chem. Pharm. Bull.; 12, 465 (1964)]. Sum of length of diseased parts in the glandular stomach was measured and it was compared with that of control group. The compounds of the present invention or DPH was given intraperitoneally immediately before the restraint and immersion in water.

In data set [10] the test system is Wistar-strain male rats. In words: Antiulcerogenic effect on Shay's ulcer (operative ulcer). Type of data set: in vivo. The conditions noted are these: 150 mg/kg intraperitoneal, 10 times. The protocol:
6.2. Antiulcerogenic effect on Shay's ulcer (operative ulcer):
Tests were carried out by using groups of rats each comprising 5-10 Wistar-strain male rats according to Shay method [Shay Harry; Gastroenterology,; 5, 43 (1945)]. Ulcers in the anterior stomach were classified on the following basis:
2. 1-5 small ulcers (diameter of less than 3 mm)
3. 6 or more small ulcers or one big ulcer (diameter of more than 3 mm)
4. two or more big ulcers

In data set [11] the test system is spontaneously hypertensive rats (SHR). In words: Antihypertensive effect in spontaneously hypertensive rats. Type of data set: in vivo. The settings on record: 60 minutes. How it is done: 8. Antihypertensive effect: Groups of rats each comprising 6-9 spontaneously hypertensive rats (SHR) were used. The compounds of the present invention or DPH was given intraperitoneally. The rate of antihypertension 60 minutes after the administration was determined.

Consider `NC(=O)C1(N2CCCCC2)CCN(CCCN2c3ccccc3CCc3ccccc32)CC1` [Carpipramine], for which the “Ach-induced contraction of the isolated deodedum” value (“Ach-induced contraction” for short) was 52 ± 6% in [1] (5 mg/kg/day intraperitoneal) and 110 ± 26% in data set [1] (10 mg/kg/day intraperitoneal).
Regarding `CN(C)CCCN1c2ccccc2Sc2ccc(Cl)cc21` [Chlorpromazine], the “Ach-induced contraction” value in data set [1] (0.1 mg/kg/day intraperitoneal) is listed as 45 ± 12%; in data set [1] (0.5 mg/kg/day intraperitoneal), 81 ± 17%.
In turn, `COc1ccc(C2(c3ccc(OC)c(C)c3)NC(=O)NC2=O)cc1` (stereo not shown) [Compound 3, 5-(4-methoxy-3-methylphenyl)-5-(4-methoxyphenyl)hydantoin] displayed a Heart rate in data set [2] of 710 ± 83 min⁻¹. Moreover, the QRS-time in data set [2] is recorded as 13.1 ± 1.7 1/1000 sec. In addition, the values for the inhibition in vivo at 100 mg/kg in data set [3] (SART stress mice) and in data set [3] (normal mice) were 22% and 2%, respectively. Also, the values for the change in vivo at 100 mg/kg in data set [4] (SART stress mice), in data set [4] (normal mice) and in data set [7] were 91%, 47.4% and 76.6%, respectively. In addition, the values for the Analgesic effect in [4] (SART stress mice) and in data set [4] (normal mice) were 60.3% and 44.3%, respectively. The LD50 at 72 h in [5] (female), in [5] (male), in [6] (female) and in data set [6] (male) was > 5000 mg/kg each time. In data set [7], this compound came in with a change in vivo at 300 mg/kg of 93.9%. Besides, the responders at 100 mg/kg in data set [8] (SART stress mice) turned out to be 40%; in data set [8] (normal mice), 30%.
As to `O=C1NC(=O)C(c2ccccc2)(c2ccc(F)cc2)N1` (stereo not shown) [Compound 5, 5-(4-Fluorophenyl)-5-phenylhydantoin], the inhibition in vivo at 150 mg/kg in data set [9] worked out at 22.8%. For the same compound, the change in vivo at 100 mg/kg in data set [4] (SART stress mice) was 95%; in data set [4] (normal mice) it was 19.8%; in data set [7] it was 31%. The LD50 at 72 h in [5] (female) is 1100 mg/kg; in data set [5] (male), 1180 mg/kg; in data set [6] (female), 810 mg/kg; in data set [6] (male) it was 840 mg/kg. The “Antiulcerogenic effect on Shay's ulcer (operative ulcer)” value in [10] is given as 20.7%. In data set [7], the change in vivo at 300 mg/kg was 38.1%. Also, the responders at 100 mg/kg was determined as 40% in [8] (SART stress mice) and 10% in data set [8] (normal mice).
`O=C1NC(=O)C(c2ccc(O)cc2)(c2ccc(O)c(O)c2)N1` (stereo not shown) [Compound 14, 5-(3,4-Dihydroxyphenyl)-5-(4-hydroxyphenyl)hydantoin]: the results for the inhibition in vivo at 100 mg/kg in data set [3] (SART stress mice) and in [3] (normal mice) were 36.2% and 5%, respectively. For the same compound, the change in vivo at 100 mg/kg in [4] (SART stress mice) amounted to 102%; in [4] (normal mice), 42.6%; in data set [7] it was 20.2%. Further, the results for the Analgesic effect in [4] (SART stress mice) and in data set [4] (normal mice) were 78.3% and 35.2%, respectively. For the same compound, the LD50 at 72 h in data set [5] (female) came to 1480 mg/kg; in [5] (male), 1500 mg/kg; in data set [6] (female) it was 1200 mg/kg; in data set [6] (male), 1280 mg/kg. In addition, the figures for the responders at 100 mg/kg in data set [8] (SART stress mice) and in data set [8] (normal mice) were 60% and 30%, respectively.
For the compound `CCC1(c2ccccc2O)NC(=O)NC1=O` (stereo not shown) [Compound 25, 5-Ethyl-5-(2-hydroxyphenyl)hydantoin], the inhibition in vivo at 100 mg/kg in data set [3] (SART stress mice) was found to be 19.8%; in data set [3] (normal mice), 1.9%. The figures for the change in vivo at 200 mg/kg in data set [4] (SART stress mice) and in data set [4] (normal mice) were 49% and 35.5%, respectively. The LD50 at 72 h is 1480 mg/kg in data set [5] (female), 1600 mg/kg in data set [5] (male), 1040 mg/kg in [6] (female) and 1230 mg/kg in [6] (male). The compound also gave a change in vivo at 300 mg/kg in data set [7] of 55.4%.
With `Cc1cc(C2(c3ccc(O)cc3)NC(=O)NC2=O)ccc1O` (stereo not shown) [Compound 30, 5-(4-Hydroxy-3-methylphenyl)-5-(4-hydroxyphenyl)hydantoin], the Heart rate in data set [2] worked out at 731 ± 71 min⁻¹. For the same compound, in [2], the QRS-time was 13.4 ± 1.1 1/1000 sec. The inhibition in vivo at 100 mg/kg amounted to 25.2% in [3] (SART stress mice) and 3.9% in [3] (normal mice). Also, the change in vivo at 100 mg/kg is 97.5% in [4] (SART stress mice), 59.8% in data set [4] (normal mice) and 26.6% in data set [7]. Besides, the Analgesic effect in [4] (SART stress mice) is listed as 43.6%; in [4] (normal mice), 12.4%. The LD50 at 72 h in data set [5] (female), in data set [5] (male), in data set [6] (female) and in data set [6] (male) was > 5000 mg/kg in each case. Also, the Rate of antihypertension is reported as 10.9% in data set [11] (150 mg/Kg intraperitoneal) and 28.6% in data set [11] (300 mg/Kg intraperitoneal). The same compound registered a change in vivo at 300 mg/kg in data set [7] of 97.4%. In addition, the responders at 100 mg/kg in [8] (SART stress mice) was 30%; in [8] (normal mice) it was 20%.
With `CN1C(=O)CN=C(c2ccccc2)c2cc(Cl)ccc21` [Diazepam], in [1] (5 mg/kg/day intraperitoneal), the “Ach-induced contraction” value is 25 ± 6%.
For the compound `CN(C)CCOC(c1ccccc1)c1ccccc1` [Diphenhydramine], the “Ach-induced contraction” value in data set [1] (10 mg/kg/day intraperitoneal) was 25 ± 5%.
Consider `CN(C)CCCN1c2ccccc2CCc2ccccc21` [Imipramine], for which the “Ach-induced contraction” value in data set [1] (5 mg/kg/day intraperitoneal) was found to be 44 ± 15%; in [1] (10 mg/kg/day intraperitoneal), 100 ± 4%.
As for `CCCC(C)(COC(N)=O)COC(N)=O` [Meprobamate], the “Ach-induced contraction” value in [1] (5 mg/kg/day intraperitoneal) was 31 ± 2%.
As for `COC(=O)[C@H]1[C@H]2C[C@@H]3c4[nH]c5cc(OC)ccc5c4CCN3C[C@H]2C[C@@H](OC(=O)c2cc(OC)c(OC)c(OC)c2)[C@@H]1OC` [Reserpine], the “Ach-induced contraction” value in data set [1] (0.1 mg/kg/day intraperitoneal) turned out to be 75 ± 10%; in data set [1] (0.5 mg/kg/day intraperitoneal), 104 ± 15%.

One may read the inhibition in vivo as the percentage by which the read-out fell short of the control. By LD50 is commonly meant the dose expected to kill half of the subjects tested. Higher therefore signals lower toxicity.
